Tests used:
[1] = system: lipoperoxide generation in rat cerebrum; test: Antioxidant activity (inhibition of lipoperoxide generation, method of Stocks et al.); format: biochemical; conditions: 100 μM; rat cerebrum supernatant, 37° C., 15 min, thiobarbituric acid, 532 nm; hydrochloride salt
Protocol: (§1) The pharmacological activity of the present compounds [1] is illustrated below. All the compounds [1] used in the pharmacological tests were tested in the form of the hydrochloride salt thereof.
Antioxidant activity is determined according to the method of Stocks et al. [Clin. Sci. Mol. Med., 47: 215 (1974)]. Rat cerebrum is added to ice-cooled 40 mM phosphate saline buffer solution (PBS) (pH 7.4, 4 ml buffer per 1 g cerebrum), homogenized and centrifuged (1000×g, 4° C., 10 min.) to obtain a supernatant solution. The supernatant solution is diluted fivefold with the above ice-cooled PBS solution, and to a 0.9 ml aliquot thereof is added a sample containing a compound [1] (0.1 ml, final concentration 100 μM) dissolved in ethanol. The resultant mixture is incubated at 37° C. for 15 minutes, 35% perchloric acid (0.2 ml) is added, and the mixture is ice-cooled to stop the reaction and centrifuged (1300×g, 4° C., 10 min.). 0.5 ml thiobarbituric acid (5 g/lit. of 50% acetic acid) is added to the supernatant solution (1 ml), so as to measure its absorbancy at 532 nm. The amount of lipoperoxide thus generated is expressed as an amount of malondialdehyde.

[2] = system: PAF-induced aggregation (rabbit platelet plasma); test: Platelet aggregation inhibitory action on PAF-induced aggregation; format: cell-based; conditions: Oryctolagus cuniculus, 0.05 h, PAF 10-50 μg/ml, 37° C., 3 min incubation, hydrochloride salt, read-out: inhibition ratio, PAF-induced platelet aggregation
Protocol: as §1
1. Platelet aggregation inhibition:
Sample solution containing a compound [1] (final concentration 500 or 100 μM) is added to rabbit platelet plasma to which was added 10% by volume of a 3.8% sodium citrate solution, and the mixture is incubated at 37° C. for 3 minutes. A platelet activation factor (PAF, final concentration 10-50 μg/ml) or collagen (final concentration 2.5 μg/ml) is added thereto as an aggregating agent, and platelet aggregation activity is measured with an aggregometer. The results of assays for PAF-induced aggregation are shown in Table 3, and those for collagen-induced aggregation are shown in Table 4, which tables show the strong platelet aggregation inhibitory activity of the compounds [1] of the present invention.

Structure (SMILES) | inhibition ratio, lipoperoxide generation (antioxidant activity) [1] [%] | inhibition at 100 µM [2] [%] | inhibition at 500 µM ([2]; 500 μM) [%]
CCCCCCCCCCCCc1nc2c(nc1OCCN1CCN(Cc3ccccc3)CC1)CCCC2 [Compound 596] | 73 |  | 
CCCCCCCCCCCCc1nc2c(nc1OCCN1CCOCC1)CCCC2 [Compound 594] | 58 |  | 
CCc1nc(C)c(C)nc1OC(C(=O)NCCN1CCOCC1)c1ccccc1 (centres unmarked) [Compound 341] |  | 42 | 
Cc1nc(C)c(OCCN2CCCN(Cc3ccc(Cl)cc3)CC2)nc1C [Compound 541] |  | 44 | 
CCCCCCCCc1nc2c(nc1OCCN1CCN(Cc3ccc(Cl)cc3)CC1)CCCC2 [Compound 575] | 79 |  | 
Cc1nc(Cc2ccccc2)c(OCCN2CCCN(Cc3ccc(Cl)cc3)CC2)nc1C [Compound 516] | 75 |  | 
Cc1nc(C)c(OCC(=O)N2CCN(C(=O)COc3nc(C)c(C)nc3C)CC2)nc1C [Compound 070] |  |  | 48
CCc1nc(OCCN2CCCN(Cc3ccc(OC)cc3)CC2)c(C(C)C)nc1CC [Compound 553] |  | 82 | 
CCc1nc(OCCN2CCN(Cc3ccccc3)CC2)c(C(C)C)nc1CC [Compound 552] |  | 78 | 
CCCCCCCCCCCCCCc1nc2c(nc1OCCN1CCN(Cc3ccc(F)cc3)CC1)CCCC2 [Compound 602] | 64 |  | 
CCc1nc(C)c(C)nc1OC(C(=O)NCCN1CCN(Cc2ccc(Cl)cc2Cl)CC1)c1ccccc1 (centres unmarked) [Compound 345] | 54 |  | 
CCc1nc(Cc2ccccc2)c(OCC(=O)NCCN2CCCN(Cc3ccc(Cl)cc3)CC2)nc1CC [Compound 382] | 83 |  | 
CCCCCCCc1nc2c(nc1OCCN1CCN(CCCC)CC1)CCCC2 [Compound 571] |  | 88 | 
CCCCCCc1nc2c(nc1OCCN1CCCN(Cc3ccc(F)cc3)CC1)CCCC2 [Compound 569] | 81 |  | 
CCc1nc(Cc2ccccc2)c(OCC(=O)NCCN2CCN(Cc3ccc(Cl)cc3)CC2)nc1CC [Compound 379] | 50 |  | 
CCCCCCc1nc2c(nc1OCCN1CCN(c3ccccc3OC)CC1)CCCC2 [Compound 570] | 65 | 40 | 
CCCCCCCCCCc1nc2c(nc1OCCN1CCN(Cc3ccc(Cl)cc3)CC1)CCCC2 [Compound 590] | 74 |  | 
CCCCc1nc2c(nc1OCCN1CCCN(Cc3ccc(Cl)cc3)CC1)CCCC2 [Compound 520] | 83 |  | 
CCCCCCCCCCc1nc2c(nc1OCCN1CCCN(Cc3ccc(F)cc3)CC1)CCCC2 [Compound 592] | 85 |  | 
CCCCCCCCc1nc2c(nc1OCCN1CCN(c3ccccc3OC)CC1)CCCC2 [Compound 578] | 88 |  | 
CCCCCc1nc2c(nc1OCCN1CCN(Cc3ccccc3)CC1)CCCC2 [Compound 561] |  | 56 | 
CCCCCCCCCCc1nc2c(nc1OCCN1CCN(c3ccc(OC)cc3)CC1)CCCC2 [Compound 593] | 73 |  | 
O=C(COc1nc2c(nc1Cc1ccccc1)CCCC2)NCCN1CCCN(Cc2ccc(F)cc2)CC1 [Compound 372] | 64 |  | 
CCCCCCCCCc1nc2c(nc1OCCN1CCCN(Cc3ccc(Cl)cc3)CC1)CCCC2 [Compound 583] | 82 |  | 
CCCCCCCCCCc1nc2c(nc1OCCN1CCN(C(c3ccccc3)c3ccccc3)CC1)CCCC2 [Compound 591] | 59 |  | 
CCCCCCCCCCCCCCCCc1nc2c(nc1OCCN1CCN(Cc3ccccc3)CC1)CCCC2 [Compound 608] | 55 |  | 
CCCCCCCCc1nc2c(nc1OCCN1CCN(c3ccccc3)CC1)CCCC2 [Compound 577] | 71 |  | 

Structure (SMILES) | inhibition ratio, lipoperoxide generation (antioxidant activity) [1] [%] | inhibition at 100 µM [2] [%] | inhibition at 500 µM ([2]; 500 μM) [%]
CCCCCCc1nc2c(nc1OCCN1CCN(Cc3ccc(Cl)cc3)CC1)CCCC2 [Compound 568] | 61 |  | 
O=C(COc1nc2c(nc1Cc1ccccc1)CCCC2)NCCN1CCN(c2ccc(Cl)cc2)CC1 [Compound 371] | 49 |  | 
CCCCCCCCCCCCc1nc2c(nc1OCCN1CCCN(Cc3ccc(F)cc3)CC1)CCCC2 [Compound 598] | 88 |  | 
CCc1nc(C)c(C)nc1OCCN1CCCN(Cc2ccc(F)cc2)CC1 [Compound 503] |  | 42 | 
CCCCCCCCc1nc2c(nc1OCCN1CCN(Cc3ccccc3)CC1)CCCC2 [Compound 574] | 71 |  | 
CCc1nc(C)c(C)nc1OC(C(=O)NCCN1CCCN(Cc2ccc(F)cc2)CC1)c1ccccc1 (centres unmarked) [Compound 347] | 51 | 59 | 
CCCCCCCCCCc1nc2c(nc1OCCN1CCCCC1)CCCC2 [Compound 586] | 68 |  | 
CCCCCCc1nc2c(nc1OCCN1CCN(CCCC)CC1)CCCC2 [Compound 565] |  | 94 | 
CCc1nc(C)c(C)nc1OC(C(=O)NCCN1CCN(Cc2ccc([N+](=O)[O-])cc2)CC1)c1ccccc1 (centres unmarked) [Compound 344] | 48 | 44 | 
CCc1nc(C)c(C)nc1OCCN1CCCN(Cc2ccc(Cl)cc2)CC1 [Compound 504] |  | 60 | 
CCCCCCCCCCCCCCCCc1nc2c(nc1OCCN1CCN(CCCC)CC1)CCCC2 [Compound 607] | 52 |  | 
CCCCCCCCCCCCCCc1nc2c(nc1OCCN1CCN(CCCC)CC1)CCCC2 [Compound 600] | 61 | 52 | 
CCc1nc(C)c(C)nc1OC(C(=O)NCCN1CCN(Cc2ccccc2)CC1)c1ccccc1 (centres unmarked) [Compound 342] |  | 43 | 
CCCCCCCCCCCCCCc1nc2c(nc1OCCN1CCN(Cc3ccccc3)CC1)CCCC2 [Compound 601] | 67 |  | 
CCCCCCCCCc1nc2c(nc1OCCN1CCN(Cc3ccccc3)CC1)CCCC2 [Compound 581] | 71 |  | 
CCc1nc(C)c(C)nc1OCCN1CCCN(Cc2ccc([N+](=O)[O-])cc2)CC1 [Compound 502] | 69 | 81 | 
CCc1nc(C)c(C)nc1OC(C(=O)NCCN1CCCN(Cc2ccc(Cl)cc2)CC1)c1ccccc1 (centres unmarked) [Compound 348] | 62 | 70 | 
CCCCCc1nc2c(nc1OCCN1CCN(CCCC)CC1)CCCC2 [Compound 560] |  | 97 | 
CCCCCCc1nc2c(nc1OCCN1CCN(Cc3ccccc3)CC1)CCCC2 [Compound 567] |  | 58 | 
CCCCCCCCCCCCc1nc2c(nc1OCCN1CCN(Cc3ccc(OC)cc3)CC1)CCCC2 [Compound 597] | 76 |  | 
CCCCCCCCc1nc2c(nc1OCCN1CCCN(Cc3ccc(F)cc3)CC1)CCCC2 [Compound 576] | 85 |  | 
CCCCN1CCN(CCOc2nc(CC)c(CC)nc2C(C)C)CC1 [Compound 551] |  | 97 | 
CCCCCCCCCCc1nc2c(nc1OCCN1CCN(Cc3ccccc3)CC1)CCCC2 [Compound 589] | 74 |  | 
CCCCCCCCCCCCCCc1nc2c(nc1OCCN1CCCN(Cc3ccc(Cl)cc3)CC1)CCCC2 [Compound 603] | 76 |  | 
O=C(COc1nc2c(nc1Cc1ccccc1)CCCC2)NCCN1CCN(c2ccccc2)CC1 [Compound 373] | 49 |  | 
CCCCCCCCCCCCc1nc2c(nc1OCCN1CCN(c3ccccc3OC)CC1)CCCC2 [Compound 599] | 70 |  | 
